In ChEMBL document CHEMBL1147805, “A new non-azole inhibitor of ABA 8'-hydroxylase: effect of the hydroxyl group substituted for geminal methyl groups in the six-membered ring” (Bioorg Med Chem Lett, 2006):
Active and inactive are the calls of the source. The rule behind the calls is not given here.

Assays:
[1] = target: T1, Abscisic acid 8'-hydroxylase 3 (Arabidopsis thaliana, UniProt Q9FH76); assay: Inhibition of Arabidopsis recombinant CYP707A3
T1 sequence (Q9FH76 whole entry): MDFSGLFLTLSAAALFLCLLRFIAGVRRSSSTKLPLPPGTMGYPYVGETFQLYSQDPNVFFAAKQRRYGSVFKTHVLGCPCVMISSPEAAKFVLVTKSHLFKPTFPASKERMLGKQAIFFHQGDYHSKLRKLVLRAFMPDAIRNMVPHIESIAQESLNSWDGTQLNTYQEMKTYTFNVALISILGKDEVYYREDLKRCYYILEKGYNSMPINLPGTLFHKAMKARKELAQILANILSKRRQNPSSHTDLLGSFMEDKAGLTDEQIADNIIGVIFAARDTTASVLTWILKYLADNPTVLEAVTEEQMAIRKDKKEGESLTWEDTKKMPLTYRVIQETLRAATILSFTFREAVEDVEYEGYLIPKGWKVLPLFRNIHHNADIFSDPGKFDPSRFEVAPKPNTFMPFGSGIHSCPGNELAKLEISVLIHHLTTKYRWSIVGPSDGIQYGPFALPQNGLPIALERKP

[2] = target: T1, Abscisic acid 8'-hydroxylase 3; assay: Activity against CYP707A3 by rice seedling elongation assay at 1 uM; type: functional; details: oryza sativa
Radish = assay: Induction of drought-stress tolerance in radish seedlings at 400 uM; type: functional, organism-based; details: Raphanus sativus
[3] = target: T1, Abscisic acid 8'-hydroxylase 3; assay: Activity against CYP707A3 by rice seedling elongation assay at 30 uM; type: functional; details: oryza sativa

| SMILES | Ki [1] [µM] | Activity [2] [%] | Activity (Radish) | Activity [3] [%] |
| --- | --- | --- | --- | --- |
| C[C@H]1CCCC(C)(C)[C@@]1(O)/C=C/C=C\C(=O)O | 1.4 | – | – | – |
| CC1=CC(=O)CC(C)(C)C1(O)/C=C/C(C)=C\C(=O)O (stereo unspecified) [ABSCISIC ACID] | – | 22 | – | – |
| C[C@@H]1CCC[C@H](O)[C@@]1(O)/C=C/C=C\C(=O)O (racemic) | – | – | inactive | – |
| C[C@H]1CCC[C@H](O)[C@@]1(O)/C=C/C=C\C(=O)O | 0.14 | – | Active | 96 |
